The IC50 is the concentration needed to halve the response being measured. As a reminder, the CC50 is the concentration that lowers cell viability or growth by half. The term melting point denotes the temperature of the solid-liquid transition.

These results are taken from patent US9586986B2, “Substituted 7-deazapurine ribonucleosides for therapeutic uses” (Institute of Organic Chemistry and Biochemistry ASCR, v.v.i., priority 2014, dated 2017).

The subject of one series is K562-TAX. Kind of series: Cytostatic/cytotoxic MTT assay, K562-TAX. In kind it is cell-based. The note with it: Homo sapiens, paclitaxel resistant subline, 72 h, read-out: MTT, IC50 K562-TAX. In a few lines: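 Human cancer lines, including daunorubicin-resistant CEM-DNR (mrp-1/mdr-1 overexpressing) and paclitaxel-resistant K562-TAX (mdr-1), seeded 25,000-30,000 cells/well, pre-incubated 24 h, then treated in duplicate with four-fold dilutions for 72 h at 37° C, 5% CO2. MTT read-out at 540 nm; IC50 from dose-response curves.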
(In general: Tetrazolium dyes change colour on reduction, which living cells bring about.)

The test system of the next series is HepG2. Kind of series: XTT cytotoxicity assay, HepG2. In kind it is cell-based. The note with it: Homo sapiens, HepG2; 72 h incubation; read-out: XTT, IC50 HepG2. The gist of the method: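 HepG2 cells seeded at 10,000/well, compounds added after 24 h and incubated 72 h at 37 °C, 5% CO2. Viability by XTT reduction (1 mg/mL XTT plus electron coupler), absorbance at 495 nm after 2 h; IC50 by non-linear regression.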

Another series concerns CCRF-CEM cells. The series is described as follows: Cell cycle and apoptosis analysis (flow cytometry, propidium iodide). In kind it is cell-based, human. The following applies: for G1, % of total cell populations / G2/M, % of total cell populations / S, % of total cell populations / sub-G1 (apoptosis), % of total cell populations: CCRF-CEM cells treated at IC50 for 24 hrs. The protocol:
After the incubation period, cells were then washed with cold 1×PBS and fixed in 70% ethanol added dropwise and stored overnight at −20° C. Afterwards, cells were washed in hypotonic citrate buffer, treated with RNase (50 μg/mL) and stained with propidium iodide. Flow cytometry using a 488 nm single-beam laser (Becton Dickinson) was used for measurement. The data were analyzed according to the program ModFitLT (Verity), and apoptosis was expressed as the percentage of cells with a propidium content lower than that in the G0/G1 population. Half of the sample was used for pH3^ser10 antibody (Sigma) labeling and subsequent flow cytometry analysis of mitotic cells.
However, the major mechanism of action was inhibition of RNA synthesis (BrU incorporation). […] Cell cycle alterations (G1, S, G2/M) were not observed in treated cells under specified experimental conditions.

Series [1] concerns Huh-7 cells harboring replicon 1B. Kind of series: Cytotoxicity in replicon 1B cells. In kind it is cell-based. The note with it: HCV subtype 1B replicon. How it is done:
(§1) Compounds were also tested in Huh-7 cells harboring sub-genomic reporter replicons derived from HCV subtypes 1B and 2A (ref.: Stuyver, L. J.; Whitaker, T.; McBrayer, T. R.; Hernandez-Santiago, B. I.; Lostia, S.; Tharnish, P. M.; Ramesh, M.; Chu, C. K.; Jordan, R.; Shi, J. X.; Rachakonda, S.; Watanabe, K. A.; Otto, M. J.; Schinazi, R. F. Antimicrob. Agents Chemother. 2003, 47, 244-254).
Background: In antiviral work, replicon cells carry a viral genome segment that copies itself.

Series [2] relates to Huh-7 cells harboring replicon 2A. The series is described as follows: Cytotoxicity in replicon 2A cells. In kind it is cell-based. The note with it: HCV subtype 2A replicon. How it is done:
as §1

In turn, `COc1ncnc2c1c(-c1ccoc1)cn2[C@@H]1O[C@H](CO)[C@@H](O)[C@H]1O` [Compound 1b, 5-(Furan-3-yl)-4-methoxy-7-(β-D-ribofuranosyl)-7H-pyrrolo[2,3-d]pyrimidine] had a melting point of 190 to 192 °C. For the same compound, the half-maximal inhibitory concentration (IC50) with K562-TAX is 2.82 µM. Besides, in the series with HepG2, the IC50 was found to be 0.29 µM. Also, in the series on CCRF-CEM cells, the “G1, % of total cell populations” value is 43.5%; the “G2/M, % of total cell populations” value amounted to 12.3%; the “S, % of total cell populations” value is recorded as 44.2%; the “sub-G1 (apoptosis), % of total cell populations” value (shortened to “sub-G1 (apoptosis), %”) stood at 8.5%. In addition, the CC50 in series [1] is over 44 µM. In series [2], this compound showed a CC50 of over 44 µM.
`COc1ncnc2c1c(-c1cccs1)cn2[C@@H]1O[C@H](CO)[C@@H](O)[C@H]1O` [Compound 1c, 4-Methoxy-7-(β-D-ribofuranosyl)-5-(thiophen-2-yl)-7H-pyrrolo[2,3-d]pyrimidine] showed a melting point of 140 to 143 °C. In the series with K562-TAX, the IC50 stood at 6.2 µM. Also, in the series on HepG2, the IC50 amounted to 13.9 µM. For the same compound, in the series on CCRF-CEM cells, the “G1, % of total cell populations” value was determined as 41.5%; the “G2/M, % of total cell populations” value came out at 9.8%; the “S, % of total cell populations” value is reported as 48.7%; the “sub-G1 (apoptosis), %” value amounted to 7.5%. Moreover, in series [1], the CC50 was over 44 µM. In addition, in series [2], the CC50 is over 44 µM.
For `COc1ncnc2c1c(-c1ccsc1)cn2[C@@H]1O[C@H](CO)[C@@H](O)[C@H]1O` [Compound 1d, 4-Methoxy-7-(β-D-ribofuranosyl)-5-(thiophen-3-yl)-7H-pyrrolo[2,3-d]pyrimidine], the melting point is 169 to 171 °C. For the same compound, the IC50 in the series on K562-TAX was found to be 3.45 µM. Also, the IC50 in the series on HepG2 turned out to be 0.43 µM. In the series with CCRF-CEM cells, the “G1, % of total cell populations” value is given as 40.8%; the “G2/M, % of total cell populations” value is 12.7%; the “S, % of total cell populations” value turned out to be 46.5%; the “sub-G1 (apoptosis), %” value was 75%. In addition, the “apoptosis induction in words” value with CCRF-CEM cells (CCRF-CEM, IC50, 24 hours) is recorded as “major apoptosis”. Besides, the CC50 in series [1] is over 44 µM. The compound further displayed a CC50 in series [2] of over 44 µM.
In the case of `COc1ncnc2c1c(-c1ccccc1)cn2[C@@H]1O[C@H](CO)[C@@H](O)[C@H]1O` [Compound 1e, 4-Methoxy-5-phenyl-7-(β-D-ribofuranosyl)-7H-pyrrolo[2,3-d]pyrimidine], the melting point was 117 to 120 °C. Moreover, the IC50 in the series with K562-TAX was over 20 µM. For the same compound, the IC50 in the series with HepG2 is over 20 µM. In addition, the CC50 in series [1] was over 44 µM. In addition, the 50% cytotoxic concentration (CC50) in series [2] is over 44 µM.
For `CSc1ncnc2c1c(-c1ccoc1)cn2[C@@H]1O[C@H](CO)[C@@H](O)[C@H]1O` [Compound 2b, 5-(Furan-3-yl)-4-methylsulfanyl-7-(β-D-ribofuranosyl)-7H-pyrrolo[2,3-d]pyrimidine], the melting point fell in the range of 121 to 124 °C. Also, in the series with K562-TAX, the IC50 is 3.25 µM. For the same compound, the IC50 in the series with HepG2 was over 15 µM. This compound also registered a CC50 in series [1] of over 44 µM. Moreover, the CC50 in series [2] is over 44 µM.
`CSc1ncnc2c1c(-c1ccsc1)cn2[C@@H]1O[C@H](CO)[C@@H](O)[C@H]1O` [Compound 2d, 4-Methylsulfanyl-7-(β-D-ribofuranosyl)-5-(thiophen-3-yl)-7H-pyrrolo[2,3-d]pyrimidine] came in with a melting point of 192 to 193 °C. Besides, the IC50 in the series on K562-TAX was over 20 µM. Further, in the series on HepG2, the IC50 was over 15 µM. In series [1], the CC50 is over 44 µM. The compound also yielded a CC50 in series [2] of over 44 µM.
In turn, `CSc1ncnc2c1c(-c1ccccc1)cn2[C@@H]1O[C@H](CO)[C@@H](O)[C@H]1O` [Compound 2e, 4-Methylsulfanyl-5-phenyl-7-(β-D-ribofuranosyl)-7H-pyrrolo[2,3-d]pyrimidine] returned a melting point of 169 to 170 °C. Also, the IC50 in the series on K562-TAX is over 20 µM. Besides, the IC50 with HepG2 is over 20 µM. Moreover, the CC50 in series [1] is over 44 µM. Further, the cytotoxic concentration (CC50) in series [2] was over 44 µM.
`CSc1ncnc2c1c(I)cn2[C@@H]1O[C@H](CO)[C@@H](O)[C@H]1O` [Compound 2h, 5-Iodo-4-methylsulfanyl-7-(β-D-ribofuranosyl)-7H-pyrrolo[2,3-d]pyrimidine] returned a melting point of 217 to 219 °C. Moreover, in the series on K562-TAX, the IC50 is 7.73 µM. Besides, the IC50 in the series with HepG2 was over 20 µM. The compound further gave a CC50 in series [1] of over 44 µM. The same compound came in with a CC50 in series [2] of over 44 µM.
`CNc1ncnc2c1c(-c1ccoc1)cn2[C@@H]1O[C@H](CO)[C@@H](O)[C@H]1O` [Compound 3b, 5-(Furan-3-yl)-4-methylamino-7-(β-D-ribofuranosyl)-7H-pyrrolo[2,3-d]pyrimidine] showed a melting point of 90 to 97 °C. The IC50 in the series with K562-TAX was over 20 µM. For the same compound, the IC50 with HepG2 is over 20 µM. The CC50 in series [1] is over 44 µM. The CC50 in series [2] was over 44 µM.
In turn, `CNc1ncnc2c1c(-c1cccs1)cn2[C@@H]1O[C@H](CO)[C@@H](O)[C@H]1O` [Compound 3c, 4-Methylamino-7-(β-D-ribofuranosyl)-5-(thiophen-2-yl)-7H-pyrrolo[2,3-d]pyrimidine] registered a melting point of 183 to 185 °C. Moreover, the IC50 in the series with K562-TAX is over 20 µM. Further, the IC50 in the series with HepG2 was over 20 µM. The CC50 in series [1] was over 44 µM. The same compound registered a CC50 in series [2] of over 44 µM.
Consider `CNc1ncnc2c1c(-c1ccsc1)cn2[C@@H]1O[C@H](CO)[C@@H](O)[C@H]1O` [Compound 3d, 4-Methylamino-7-(β-D-ribofuranosyl)-5-(thiophen-3-yl)-7H-pyrrolo[2,3-d]pyrimidine], for which the melting point lay in the range of 135 to 138 °C. Moreover, the IC50 in the series with K562-TAX is over 20 µM. In addition, the IC50 in the series with HepG2 was over 20 µM. Further, the CC50 in series [1] is over 44 µM. In addition, the CC50 in series [2] was over 44 µM.
Compound `CNc1ncnc2c1c(-c1ccccc1)cn2[C@@H]1O[C@H](CO)[C@@H](O)[C@H]1O` [Compound 3e, 4-Methylamino-5-phenyl-7-(β-D-ribofuranosyl)-7H-pyrrolo[2,3-d]pyrimidine] had a melting point of 149 to 153 °C. The IC50 in the series with K562-TAX was over 20 µM. In addition, the 50% inhibitory concentration (IC50) in the series with HepG2 was over 20 µM. Also, the CC50 in series [1] was over 44 µM. The same compound showed a CC50 in series [2] of over 44 µM.
Take `CNc1ncnc2c1c(-c1cc3ccccc3o1)cn2[C@@H]1O[C@H](CO)[C@@H](O)[C@H]1O` [Compound 3f, 5-(Benzofuran-2-yl)-4-methylamino-7-(β-D-ribofuranosyl)-7H-pyrrolo[2,3-d]pyrimidine]: the melting point is 203 to 206 °C. In the series with K562-TAX, the IC50 was over 20 µM. Moreover, the IC50 in the series with HepG2 was over 20 µM. In addition, the CC50 in series [1] is over 44 µM. The compound also came in with a CC50 in series [2] of over 44 µM.
For `CN(C)c1ncnc2c1c(-c1ccoc1)cn2[C@@H]1O[C@H](CO)[C@@H](O)[C@H]1O` [Compound 4b, 4-Dimethylamino-5-(furan-3-yl)-7-(β-D-ribofuranosyl)-7H-pyrrolo[2,3-d]pyrimidine], the melting point fell in the range of 94 to 97 °C. Besides, the IC50 in the series on K562-TAX is 14.9 µM. In addition, in the series on HepG2, the IC50 stood at 12.5 µM. In series [1], this compound gave a CC50 of over 44 µM. Further, the CC50 in series [2] was over 44 µM.
In turn, `CN(C)c1ncnc2c1c(I)cn2[C@@H]1O[C@H](CO)[C@@H](O)[C@H]1O` [Compound 4h, 4-Dimethylamino-5-iodo-7-(β-D-ribofuranosyl)-7H-pyrrolo[2,3-d]pyrimidine] had a melting point of 195 to 197 °C. Besides, in the series on K562-TAX, the IC50 turned out to be 0.05 µM. For the same compound, the IC50 with HepG2 came to 13.9 µM. In the series with CCRF-CEM cells, the “G1, % of total cell populations” value came to 39.8%; the “G2/M, % of total cell populations” value is reported as 13.5%; the “S, % of total cell populations” value was found to be 46.7%; the “sub-G1 (apoptosis), %” value was found to be 9.4%. This compound displayed a CC50 in series [1] of over 44 µM. For the same compound, the CC50 in series [2] was over 44 µM.
For the compound `Cc1ncnc2c1c(-c1cccs1)cn2[C@@H]1O[C@H](CO)[C@@H](O)[C@H]1O` [Compound 5c, 4-Methyl-7-(β-D-ribofuranosyl)-5-(thiophen-2-yl)-7H-pyrrolo[2,3-d]pyrimidine], the melting point fell in the range of 110 to 111 °C. Moreover, the IC50 with K562-TAX was over 20 µM. Also, the IC50 in the series on HepG2 was over 15 µM. Also, the CC50 in series [1] was over 44 µM. This compound registered a CC50 in series [2] of over 44 µM.
